Measured values from patent US12565489B2, “Heterocyclyl pyrimidines and triazines as novel fungicides” (Bayer Aktiengesellschaft, priority 2020, dated 2026).

Experiment: Measurement of Log P values by HPLC on reversed phase columns (EEC directive 79/831 Annex V.A8)
Format: physicochemical
Settings: LogP
Description: Measurement of Log P values as provided herein was performed according to EEC directive 79/831 Annex V.A8 by HPLC (High Performance Liquid Chromatography) on reversed phase columns with the following methods: • ^[a] Log P value is determined by measurement of LC-UV, in an acidic range, with 0.1% formic acid in water and acetonitrile as eluent (linear gradient from 10% acetonitrile to 95% acetonitrile). • ^[b] Log P value is determined by measurement of LC-UV, in a neutral range, with 0.001 molar ammonium acetate solution in water and acetonitrile as eluent (linear gradient from 10% acetonitrile to 95% acetonitrile). • ^[c] Log P value is determined by measurement of LC-UV, in an acidic range, with 0.1% phosphoric acid and acetonitrile as eluent (linear gradient from 10% acetonitrile to 95% acetonitrile).
If more than one Log P value is available within the same method, all the values are given and separated by “+”.
Calibration was done with straight-chain alkan2-ones (with 3 to 16 carbon atoms) with known Log P values (measurement of Log P values using retention times with linear interpolation between successive alkanones). Lambda-max-values were determined using UV-spectra from 200 nm to 400 nm and the peak values of the chromatographic signals

Row | chromatographic logP | Compound
1 | 3.07 | Cc1ncc(Oc2cccc(Cl)c2)c(C#N)n1 [Compound 16-01]
2 | 4.66 | Cc1ncc(Oc2cccc(C(F)(F)F)c2)c(C(=NO)N[C@@H](CCl)Cc2ccc(SC(F)(F)F)cc2)n1 (racemic) [Compound 11-10]
3 | 4.51 | Cc1ncc(Oc2cccc(C(F)(F)F)c2)c(C(=O)N[C@@H](CCl)Cc2ccc(OC(F)F)cc2Cl)n1 (racemic) [Compound 10-08]
4 | 3.12 | Cc1ncc(Oc2cccc(Cl)c2)c(C(N)=NOCC(=O)c2ccc3c(c2)OCCO3)n1 [Compound 19-02]
5 | 2.15 | Cc1ncc(Oc2cccc(Br)c2)c(C(=O)O)n1 [Compound 1-04]
6 | 2.19 | COC(=N)c1nc(C)ncc1Oc1cccc(Cl)c1 [Compound 20-01, methyl 5-(3-chlorophenoxy)-2-methyl-pyrimidine-4-carboximidate]
7 | 1.77 | C#Cc1cccc(Oc2cnc(C)nc2C(=O)O)c1 [Compound 1-05]
8 | 3.4 | Cc1ncc(Oc2cccc(Cl)c2)c(C(N)=NO[C@H](F)C(=O)c2ccc(Cl)cc2)n1 (racemic) [Compound 19-04]
9 | 4.86 | Cc1ncc(Oc2cccc(C(F)(F)F)c2)c(C(=O)N[C@@H](CCl)Cc2ccc(Br)cc2C)n1 (racemic) [Compound 10-06]
10 | 3.26 | Cc1ccc(CC(CCl)NC(=NO)c2nc(C)ncc2Br)c(C)c1 (racemic) [Compound 13-01, 5-bromo-N-[(2RS)-1-chloro-3-(2,4-dimethylphenyl)propan-2-yl]-N′-hydroxy-2-methylpyrimidine-4-carboximidamide]
11 | 3.66 | Cc1ccc(CC(CCl)NC(=O)c2nc(C)ncc2Br)c(C)c1 (racemic) [Compound 12-01, 5-bromo-N-[(2RS)-1-chloro-3-(2,4-dimethylphenyl)propan-2-yl]-2-methyl-pyrimidine-4-carboxamide]
12 | 4.62 | CSc1ncc(Br)c(C(=O)N[C@@H](CON2C(=O)c3ccccc3C2=O)Cc2ccc(C)cc2Cl)n1 (racemic) [Compound 3-03]
13 | 2.59 | Cc1ccc(CC2CCN=C(c3nc(C)ncc3Oc3cccc(Cl)c3)N2)c(C)c1 (racemic) [Compound I-022, 5-(3-chlorophenoxy)-2-methyl-4-[(6RS)-6-[(2,4-dimethylphenyl)methyl]-1,4,5,6-tetrahydropyrimidin-2-yl]pyrimidine]
14 | 2.49 | O=C(O)c1nc(C2CC2)ncc1Oc1cccc(C(F)(F)F)c1 [Compound 1-02, 2-cyclopropyl-5-[3-(trifluoromethyl)phenoxy]pyrimidine-4-carboxylic acid]
15 | 2.2 | Cc1ncc(Oc2cccc(C3CC3)c2F)c(C(=O)O)n1 [Compound 1-07]
16 | 1.91 | Cc1ncc(Oc2cccc(Cl)c2F)c(C(=O)O)n1 [Compound 1-08]
17 | 4.28 | Cc1ccc(C[C@H](CCl)NC(=NO)c2nc(C)ncc2Oc2cccc(Cl)c2)c(Cl)c1 (racemic) [Compound 11-05]
18 | 4.62 | Cc1ccc(C[C@H](CCl)NC(=NO)c2nc(C)ncc2Oc2cccc(C3CC3)c2F)c(Cl)c1 (racemic) [Compound 11-03]
19 | 4.12 | Cc1ncc(Oc2cccc(C(F)(F)F)c2)c(C(=NO)N[C@@H](CCl)Cc2csc(C(F)(F)F)c2)n1 (racemic) [Compound 11-08]
20 | 2.53 | C#Cc1cccc(Oc2cnc(C)nc2C(=O)N[C@@H](CON)Cc2ccc(C)cc2C)c1 (racemic) [Compound 4-02]
21 | 4.31 | Cc1ccc(C[C@H](CCl)NC(=NO)c2nc(C)ncc2Oc2cccc(C(F)(F)F)c2)c(Cl)c1 (racemic) [Compound 11-02]
22 | 4.47 | COc1ccc(C[C@H](CCl)NC(=O)c2nc(C)ncc2Oc2cccc(C(F)(F)F)c2)c(Cl)c1 (racemic) [Compound 10-01]
23 | 4.37 | Cc1ncc(Oc2cccc(C(F)(F)F)c2)c(C(=O)N[C@@H](CCl)Cc2ccc(C(F)F)cc2Cl)n1 (racemic) [Compound 10-10]
24 | 3.05 | Cc1ccc(CC2CON=C(c3nc(C)ncc3Br)N2)c(C)c1 (racemic) [Compound 7-01, (5RS)-3-(5-bromo-2-methylpyrimidin-4-yl)-5-(2,4-dimethylbenzyl)-5,6-dihydro-4H-1,2,4-oxadiazine]

Row | chromatographic logP | Compound
25 | 4.74 | Cc1ccc(C[C@H](CCl)NC(=O)c2nc(C)ncc2Oc2cccc(C(F)(F)F)c2)c(Cl)c1 (racemic) [Compound 10-02]
26 | 4.92 | Cc1ncc(Oc2cccc(C(F)(F)F)c2)c(C(=O)N[C@@H](CCl)Cc2ccc(SC(F)(F)F)cc2)n1 (racemic) [Compound 10-09]
27 | 3.84 | Cc1ncc(Oc2cccc(Cl)c2)c(C2=NOC(C)(C)[C@@H](c3ccc(F)cc3F)N2)n1 (racemic) [Compound I-035]
28 | 1.87 | C=Cc1cccc(Oc2cnc(C)nc2C(=O)O)c1 [Compound 1-06]
29 | 2.49 | CSc1ncc(Br)c(C(=O)N[C@@H](CON)Cc2ccc(C)cc2C)n1 (racemic) [Compound 6b-01]
30 | 3.7 | Cc1ccc(CC(CON)NC(=O)c2nc(C3CC3)ncc2Oc2cccc(C(F)(F)F)c2)c(C)c1 (racemic) [Compound 4-01, N-[(2RS)-1-(aminooxy)-3-(2,4-dimethylphenyl)propan-2-yl]-2-cyclopropyl-5-[3-(trifluoromethyl)phenoxy]pyrimidine-4-carboxamide]
31 | 4.41 | C#Cc1cccc(Oc2cnc(C)nc2C(=O)N[C@@H](CON2C(=O)c3ccccc3C2=O)Cc2ccc(C)cc2C)c1 (racemic) [Compound 3-02]
32 | 1.66 | Cc1ncc(Oc2cccc(Cl)c2)c(C(N)=NO)n1 [Compound 17-01, 5-(3-chlorophenoxy)-N′-hydroxy-2-methyl-pyrimidine-4-carboxamidine]
33 | 4.93 | Cc1ccc(C[C@H](CCl)NC(=O)c2nc(C)ncc2Oc2cccc(C3CC3)c2F)c(Cl)c1 (racemic) [Compound 10-03]
34 | 4.7 | Cc1ccc(C[C@H](CCl)NC(=O)c2nc(C)ncc2Oc2cccc(Cl)c2F)c(Cl)c1 (racemic) [Compound 10-05]
35 | 4.86 | Cc1ccc(C[C@H](CCl)NC(=O)c2nc(C)ncc2Oc2cccc(C3CC3)c2F)c(C)c1 (racemic) [Compound 10-11]
36 | 2 | Cc1ncc(Oc2cccc(Cl)c2)c(C(=O)O)n1 [Compound 1-03]
37 | 4.15 | Cc1ncc(Oc2cccc(Cl)c2)c(C(N)=NOCC(=O)c2ccc3c(c2)CCC3)n1 [Compound 19-01]
38 | 2.58 | CSc1ncc(Br)c(C(=O)N[C@@H](CON)Cc2ccc(C)cc2Cl)n1 (racemic) [Compound 4-03]
39 | 5.4 | Cc1ccc(CC(CON2C(=O)c3ccccc3C2=O)NC(=O)c2nc(C3CC3)ncc2Oc2cccc(C(F)(F)F)c2)c(C)c1 (racemic) [Compound 3-01, 2-cyclopropyl-N-{(2RS)-1-(2,4-dimethylphenyl)-3-[(1,3-dioxo-1,3-dihydro-2H-isoindol-2-yl)oxy]propan-2-yl}-5-[3-(trifluoromethyl)phenoxy]pyrimidine-4-carboxamide]
40 | 4.55 | Cc1ncc(Oc2cccc(C(F)(F)F)c2)c(C(=O)N[C@@H](CCl)Cc2csc(C(F)(F)F)c2)n1 (racemic) [Compound 10-07]
41 | 4.01 | COc1ccc(C[C@H](CCl)NC(=NO)c2nc(C)ncc2Oc2cccc(C(F)(F)F)c2)c(Cl)c1 (racemic) [Compound 11-01]
42 | 4.51 | Cc1ccc(C[C@H](CCl)NC(=NO)c2nc(C)ncc2Oc2cccc(C3CC3)c2F)c(C)c1 (racemic) [Compound 11-04]
43 | 4.55 | CSc1ncc(Br)c(C(=O)N[C@@H](CON2C(=O)c3ccccc3C2=O)Cc2ccc(C)cc2C)n1 (racemic) [Compound 6a-01]
44 | 0.69 | Cc1ccc(C[C@H](N)CC(N)=O)c(C)c1 (racemic) [Compound 9-04]
45 | 4.61 | Cc1ccc(C[C@H](CCl)NC(=O)c2nc(C)ncc2Oc2cccc(Cl)c2)c(Cl)c1 (racemic) [Compound 10-04]
46 | 4.02 | Cc1ncc(Oc2cccc(C(F)(F)F)c2)c(C(=NO)N[C@@H](CCl)Cc2ccc(C(F)F)cc2Cl)n1 (racemic) [Compound 11-11]
47 | 3.41 | Cc1ncc(Oc2cccc(Cl)c2)c(C(N)=NOC(C)(C)C(=O)c2ccc(F)cc2F)n1 [Compound 19-03]
48 | 4.08 | CSc1ncc(Br)c(C2=NOC[C@@H](Cc3ccc(C)cc3Cl)N2)n1 (racemic) [Compound 7-03]

Row | Compound | chromatographic logP
49 | Cc1ccc(C[C@H](N)CCN)c(C)c1 (racemic) [Compound 9-06] | 0.23

Same assay, conditions: method [a]: LC-UV, acidic range, 0.1% formic acid in water and acetonitrile as eluent; read-out: LogP

Row | Compound | chromatographic logP
50 | N[C@H](CCl)Cc1csc(C(F)(F)F)c1 (racemic) [Compound 9-03] | 1.29
51 | N[C@H](CCl)Cc1ccc(SC(F)(F)F)cc1 (racemic) [Compound 9-02] | 1.68
52 | Cc1ncc(Oc2cccc(C(F)(F)F)c2)c(C2=NOCC(Cc3ccc(C#C[Si](C)(C)C)cc3C)N2)n1 (racemic) [Compound I-010, trimethyl-[2-[3-methyl-4-[[(5RS)-3-[2-methyl-5-[3-(trifluoro-methyl)phenoxy]pyrimidin-4-yl]-5,6-dihydro-4H-1,2,4-oxadiazin-5-yl]methyl]phenyl]ethynyl]silane] | 5.79

Same assay, conditions: reversed phase HPLC column, method [a]: LC-UV, acidic range, 0.1% formic acid in water and acetonitrile as eluent; read-out: LogP

Row | chromatographic logP | Compound
53 | 1.55 | Cc1ccc(C[C@H](N)CON2C(=O)c3ccccc3C2=O)c(C)c1 (racemic) [Compound 2-01]
